# Laboratory results taken from patent publication US4426524A, “Heterocyclic substituted benzyl alcohol, insecticidal ester derivatives, and intermediates” (priority 1982, dated 1984).
# Tests used:
# southern armyworm [1] = test: Foliar application, southern armyworm; type: in vivo; conditions: Spodoptera eridania, SAW, foliar, 48 hours, read-out: Foliar % Kill (ppm)
# Experimental: (§1) Foliar Application: The activity of some of the compounds of the invention against various test species selected from pea aphid (Acyrthosiphon pisum), twospotted spider mite (Tetranychus urticae), southern armyworm (Spodoptera eridania), Mexican bean beetle (Epilachna varivestis), and cabbage looper (Tricoplusia ni) was determined by foliar application of the test compound. The test materials were formulated as aqueous solutions containing 10% acetone and 0.25% acetylphenoxypolyethoxyethanol. Activity against pea aphid was determined on English fava bean plants the leaves of which were sprayed to runoff with various concentrations of test solution prior to infestation with adult aphids. Activity against twospotted spider mite was evaluated on pinto bean plants whose leaves were sprayed to runoff with various concentrations of test solution after infestation with adult mites. Activity against the remaining species was evaluated on pinto bean plants whose leaves were sprayed to runoff with various concentrations of test solution before infestation with the appropriate immature insects. Mortality was read approximately 48 hours after treatment.
# Mexican bean beetle [2] = test: Topical application, Mexican bean beetle; type: in vivo, Epilachna varivestis; conditions: MBB; for Topical % Kill @ 5000 ng/insect: 24 hours
# Experimental: (§2) Topical Application: The compounds of this invention were tested for insecticidal activity against various insect species selected from southern armyworm (Spodoptera eridania), Mexican bean beetle, (Epilachna varivestis), milkweed bug (Oncopeltus fasciatus), and cabbage looper (Tricoplusia ni) by applying to the second or third dorsal thoracic segment of each larvae a one microliter droplet containing 5 mg/mL of test compound in acetone (5000 ng/insect). The test was allowed to stand 24 hours after application and was then read to determine the percent kill.
# (§3) To determine the LD50 of the compounds, the topical application test was repeated by applying various amounts of toxicant. Also included among the species tested against for this determination were tobacco budworm (Heliothis virescens), beet armyworm (Spodoptera exigua), and boll weevil (Anthonomus grandis).
# pea aphid = test: Foliar application, pea aphid; type: in vivo; conditions: Acyrthosiphon pisum, PA, foliar, 48 hours, read-out: Foliar % Kill (ppm)
# Experimental: as §1
# twospotted spider mite = test: Foliar application, twospotted spider mite; type: in vivo; conditions: Tetranychus urticae, TSM, foliar, 48 hours, read-out: Foliar % Kill (ppm)
# Experimental: as §1
# milkweed bug = test: Topical application, milkweed bug; type: in vivo, Oncopeltus fasciatus; conditions: MWB; for Topical % Kill @ 5000 ng/insect: 24 hours
# Experimental: as §2, §3
# cabbage looper [3] = test: Topical application, cabbage looper; type: in vivo, Tricoplusia ni; conditions: CL
# Experimental: as §2, §3
# Mexican bean beetle [4] = test: Foliar application, Mexican bean beetle; type: in vivo; conditions: Epilachna varivestis, MBB, foliar, 48 hours, read-out: Foliar % Kill (ppm)
# Experimental: as §1
# tobacco budworm = test: Topical application, tobacco budworm; type: in vivo, Heliothis virescens; conditions: TBW
# Experimental: as §2, §3
# southern armyworm [5] = test: Topical application, southern armyworm; type: in vivo, Spodoptera eridania; conditions: SAW; for Topical % Kill @ 5000 ng/insect: 24 hours
# Experimental: as §2, §3
# cabbage looper [6] = test: Foliar application, cabbage looper; type: in vivo, Tricoplusia ni; conditions: Trichoplusia ni, CL, 48 hours, read-out: Foliar % Kill (ppm)
# Experimental: as §1
# beet armyworm = test: Topical application, beet armyworm; type: in vivo, Spodoptera exigua; conditions: BAW
# Experimental: as §2, §3
# boll weevil = test: Topical application, boll weevil; type: in vivo, Anthonomus grandis; conditions: BW
# Experimental: as §2, §3
SMILES,Topical LD50 (Mexican bean beetle [2]) [ng/insect],Topical % Kill @ 5000 ng/insect (Mexican bean beetle [2]) [%],mortality at 500 ppm (pea aphid) [%],mortality at 500 ppm (twospotted spider mite) [%],Topical LD50 (milkweed bug) [ng/insect],Topical % Kill @ 5000 ng/insect (milkweed bug) [%],Topical LD50 (cabbage looper [3]) [ng/insect],Topical LD50 (tobacco budworm) [ng/insect],Topical LD50 (southern armyworm [5]) [ng/insect],Topical % Kill @ 5000 ng/insect (southern armyworm [5]) [%],mortality at 500 ppm (southern armyworm [1]) [%],mortality at 16 ppm (twospotted spider mite) [%],mortality at 64 ppm (Mexican bean beetle [4]) [%],also measured
"Cc1c(COC(=O)[C@@H]2[C@H](C=C(Cl)Cl)C2(C)C)cccc1-c1cccs1 [h, [2-methyl-3-(2-thienyl)phenyl]-methyl 1R-cis-3-(2,2-dichloroethenyl)-2,2-dimethylcyclopropanecarboxylate]",9,100,100,100,64,100,136,38,22,–,–,–,–,mortality at 6.5 ppm (southern armyworm [1]; 6.5 ppm): 100%; mortality at 16 ppm (Mexican bean beetle [4]; 16 ppm): 95%; mortality at 16 ppm (cabbage looper [6]; 16 ppm): 90%
"Cc1c(COC(=O)[C@H]2[C@H](C=C(Cl)Cl)C2(C)C)cccc1-c1cccs1 (relative stereo) [f, [2-methyl-3-(2-thienyl)phenyl]methyl trans-3-(2,2-dichloroethenyl)-2,2-dimethylcyclopropanecarboxylate]",–,–,–,–,238,100,–,–,155,–,–,–,–,mortality at 512 ppm (southern armyworm [1]): 100%; mortality at 512 ppm (pea aphid): 100%; mortality at 512 ppm (twospotted spider mite; 512 ppm): 71%; mortality at 512 ppm (Mexican bean beetle [4]): 100%; mortality at 120 ppm (cabbage looper [6]; 120 ppm): 100%
"CC1(C)[C@H](C=C(Cl)Cl)[C@@H]1C(=O)OCc1cccc(-c2ccsc2)c1 (relative stereo) [d, 3-(3-thienyl)phenylmethyl cis-3-(2,2-dichloroethenyl)-2,2-dimethylcyclopropanecarboxylate]",73,100,100,100,1137,95,2408,–,57,100,–,–,–,Topical LD50 (beet armyworm): 3010 ng/insect
"Cc1c(COC(=O)[C@H]2[C@@H](C=C(Cl)Cl)C2(C)C)cccc1-c1ccco1 (relative stereo) [n, [3-(2-furanyl)-2-methylphenyl]methyl cis-3-(2,2-dichloroethenyl)-2,2-dimethylcyclopropanecarboxylate]",72,100,–,–,1140,100,341,92,73,–,100,0,40,mortality at 64 ppm (pea aphid; 64 ppm): 100%
"Cc1c(COC(=O)[C@H]2[C@@H](C=C(Cl)Cl)C2(C)C)cccc1-c1cccs1 (relative stereo) [g, [2-methyl-3-(2-thienyl)phenyl]methyl cis-3-(2,2-dichloroethenyl)-2,2-dimethylcyclopropanecarboxylate]",8,–,–,–,234,100,0.5,107,51,100,–,–,–,mortality at 512 ppm (southern armyworm [1]): 100%; mortality at 512 ppm (pea aphid): 100%; Topical LD50 (boll weevil): 21 ng/insect; mortality at 64 ppm (twospotted spider mite; 64 ppm): 0%; mortality at 512 ppm (Mexican bean beetle [4]): 100%; mortality at 80 ppm (cabbage looper [6]; 80 ppm): 100%
"Cc1c(COC(=O)[C@H]2[C@@H](C=C(Cl)C(F)(F)F)C2(C)C)cccc1-c1ccco1 (relative stereo) [m, [3-(2-furanyl)-2-methylphenyl]methyl cis-3-(2-chloro-3,3,3-trifluoro-1-propenyl)-2,2-dimethylcyclopropanecarboxylate]",43,100,100,–,286,100,149,46,56,100,100,0,75,–
"Cc1c(COC(=O)[C@H]2[C@@H](C=C(Br)Br)C2(C)C)cccc1-c1cccs1 (relative stereo) [i, [2-methyl-3-(2-thienyl)phenyl]-methyl cis-3-(2,2-dibromoethenyl)-2,2-dimethylcyclopropanecarboxylate]",20,100,100,90,132,100,371,177,55,100,–,–,–,mortality at 16 ppm (southern armyworm [1]; 16 ppm): 95%; mortality at 32 ppm (Mexican bean beetle [4]; 32 ppm): 90%; mortality at 32 ppm (cabbage looper [6]; 32 ppm): 70%
"Cc1c(COC(=O)C2C(C=C(Cl)Cl)C2(C)C)cccc1-c1ccco1 (mixture of isomers) [o, [3-(2-furanyl)-2-methylphenyl]methyl cis,trans-3-(2,2-dichloroethenyl)-2,2-dimethylcyclopropanecarboxylate]",86,100,100,–,450,100,536,45,146,100,100,0,45,–
